Laboratory results taken from PubChem BioAssay (NCI).
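Test compounds were applied to cells in 96-well plates for 48 hours at 5 doses. TGI: concentration producing complete growth inhibition.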

Legend:
Assay in all cases: DTP human tumour cell line panel, 48 h
U251 CNS = system: U251 CNS
TK-10 renal = system: TK-10 renal
SNB-75 CNS = system: SNB-75 CNS
CAKI-1 renal = system: CAKI-1 renal
PC-3 prostate = system: PC-3 prostate
HT29 colon = system: HT29 colon
COLO 205 colon = system: COLO 205 colon
SK-MEL-5 melanoma = system: SK-MEL-5 melanoma
SF-295 CNS = system: SF-295 CNS
M14 melanoma = system: M14 melanoma
HOP-92 NSCLC = system: HOP-92 NSCLC
HS 578T breast = system: HS 578T breast
SNB-19 CNS = system: SNB-19 CNS
UACC-62 melanoma = system: UACC-62 melanoma
NCI-H226 lung = system: NCI-H226 lung
SN12C renal = system: SN12C renal
786-0 renal = system: 786-0 renal
A498 renal = system: A498 renal
LOX IMVI melanoma = system: LOX IMVI melanoma

## NC(N)=NC(N)=Nc1c(F)c(F)c(F)c(F)c1F
U251 CNS
  TGI: > 100 µM
TK-10 renal
  TGI: > 100 µM
SNB-75 CNS
  TGI: > 100 µM
CAKI-1 renal
  TGI: > 100 µM
PC-3 prostate
  TGI: > 100 µM
HT29 colon
  TGI: > 100 µM
COLO 205 colon
  TGI: > 100 µM
SK-MEL-5 melanoma
  TGI: > 100 µM
SF-295 CNS
  TGI: > 100 µM
M14 melanoma
  TGI: 48.4 µM
HOP-92 NSCLC
  TGI: > 100 µM
HS 578T breast
  TGI: > 100 µM
SNB-19 CNS
  TGI: > 100 µM
UACC-62 melanoma
  TGI: > 100 µM
NCI-H226 lung
  TGI: > 100 µM
SN12C renal
  TGI: > 100 µM
786-0 renal
  TGI: > 100 µM
A498 renal
  TGI: > 100 µM

## O=C1C(=O)N(C2CCCCC2)C(=S)N1C1CCCCC1
U251 CNS
  TGI: > 100 µM
TK-10 renal
  TGI: > 100 µM
LOX IMVI melanoma
  TGI: > 100 µM
SNB-75 CNS
  TGI: > 100 µM
CAKI-1 renal
  TGI: > 100 µM
PC-3 prostate
  TGI: > 100 µM
HT29 colon
  TGI: > 100 µM
COLO 205 colon
  TGI: > 100 µM
SK-MEL-5 melanoma
  TGI: > 100 µM
SF-295 CNS
  TGI: > 100 µM
HOP-92 NSCLC
  TGI: > 100 µM
HS 578T breast
  TGI: > 100 µM
SNB-19 CNS
  TGI: > 100 µM
UACC-62 melanoma
  TGI: > 100 µM
NCI-H226 lung
  TGI: > 100 µM
SN12C renal
  TGI: > 100 µM
786-0 renal
  TGI: > 100 µM
A498 renal
  TGI: > 100 µM

## C1=NCCOCCN=Cc2ccccc2OCc2cccc(n2)COc2ccccc21
U251 CNS
  TGI: 18.2 µM
TK-10 renal
  TGI: 20.4 µM
SNB-75 CNS
  TGI: 12.9 µM
PC-3 prostate
  TGI: > 25 µM
HT29 colon
  TGI: 10.9 µM
COLO 205 colon
  TGI: > 25 µM
SF-295 CNS
  TGI: 12 µM
M14 melanoma
  TGI: > 25 µM
HOP-92 NSCLC
  TGI: > 25 µM
HS 578T breast
  TGI: 15 µM
SNB-19 CNS
  TGI: > 25 µM
UACC-62 melanoma
  TGI: 9.09 µM
SN12C renal
  TGI: 15.2 µM
786-0 renal
  TGI: > 25 µM
A498 renal
  TGI: > 25 µM

## COc1ccc(C2NC3=C(CCCC3)C3(C#N)C(=O)N=C(N)C23C#N)cc1 (stereo unspecified)
U251 CNS
  TGI: > 100 µM
TK-10 renal
  TGI: > 100 µM
LOX IMVI melanoma
  TGI: > 100 µM
CAKI-1 renal
  TGI: > 100 µM
PC-3 prostate
  TGI: > 100 µM
HT29 colon
  TGI: > 100 µM
COLO 205 colon
  TGI: > 100 µM
SK-MEL-5 melanoma
  TGI: > 100 µM
SF-295 CNS
  TGI: > 100 µM
M14 melanoma
  TGI: > 100 µM
HOP-92 NSCLC
  TGI: > 100 µM
HS 578T breast
  TGI: > 100 µM
SNB-19 CNS
  TGI: > 100 µM
UACC-62 melanoma
  TGI: > 100 µM
NCI-H226 lung
  TGI: > 100 µM
SN12C renal
  TGI: > 100 µM
786-0 renal
  TGI: > 100 µM
A498 renal
  TGI: > 100 µM

## COc1cc(/C=C/C2=NN(c3cccc(S(=O)(=O)O)c3)C3(C2)C(Cl)C(=O)N3c2nc3ccccc3s2)ccc1O (stereo unspecified)
U251 CNS
  TGI: 40.7 µM
TK-10 renal
  TGI: 28.2 µM
LOX IMVI melanoma
  TGI: 27.5 µM
SNB-75 CNS
  TGI: 60 µM
CAKI-1 renal
  TGI: 33 µM
PC-3 prostate
  TGI: > 100 µM
HT29 colon
  TGI: 40.8 µM
COLO 205 colon
  TGI: 40.4 µM
SK-MEL-5 melanoma
  TGI: 85.2 µM
M14 melanoma
  TGI: > 100 µM
HOP-92 NSCLC
  TGI: 29.7 µM
HS 578T breast
  TGI: > 100 µM
SNB-19 CNS
  TGI: > 100 µM
UACC-62 melanoma
  TGI: 43.1 µM
NCI-H226 lung
  TGI: 52.6 µM
SN12C renal
  TGI: 47.5 µM
786-0 renal
  TGI: 32.2 µM
A498 renal
  TGI: > 100 µM

## N#Cc1ccc(OCc2ccc3nc(-c4ccccc4)c(Cl)nc3c2)cc1
U251 CNS
  TGI: > 100 µM
TK-10 renal
  TGI: > 100 µM
LOX IMVI melanoma
  TGI: > 100 µM
SNB-75 CNS
  TGI: > 100 µM
CAKI-1 renal
  TGI: > 100 µM
PC-3 prostate
  TGI: > 100 µM
HT29 colon
  TGI: > 100 µM
COLO 205 colon
  TGI: > 100 µM
SK-MEL-5 melanoma
  TGI: > 100 µM
SF-295 CNS
  TGI: > 100 µM
M14 melanoma
  TGI: > 100 µM
HOP-92 NSCLC
  TGI: > 100 µM
HS 578T breast
  TGI: > 100 µM
SNB-19 CNS
  TGI: > 100 µM
UACC-62 melanoma
  TGI: > 100 µM
SN12C renal
  TGI: > 100 µM
786-0 renal
  TGI: > 100 µM
A498 renal
  TGI: > 100 µM

## O=C(CC(C(=O)c1cccs1)c1ccsc1)c1ccsc1 (stereo unspecified)
U251 CNS
  TGI: > 100 µM
TK-10 renal
  TGI: > 100 µM
LOX IMVI melanoma
  TGI: > 100 µM
SNB-75 CNS
  TGI: > 100 µM
PC-3 prostate
  TGI: > 100 µM
HT29 colon
  TGI: > 100 µM
COLO 205 colon
  TGI: 53.5 µM
SK-MEL-5 melanoma
  TGI: 64 µM
SF-295 CNS
  TGI: 93.3 µM
M14 melanoma
  TGI: 50.8 µM
HOP-92 NSCLC
  TGI: > 100 µM
HS 578T breast
  TGI: 71.2 µM
SNB-19 CNS
  TGI: > 100 µM
UACC-62 melanoma
  TGI: > 100 µM
SN12C renal
  TGI: > 100 µM
786-0 renal
  TGI: > 100 µM
A498 renal
  TGI: 57.9 µM

## Cc1nnc2sc(-c3ccc(-c4ccccc4Cl)o3)nn12
U251 CNS
  TGI: > 100 µM
TK-10 renal
  TGI: > 100 µM
LOX IMVI melanoma
  TGI: 53.2 µM
CAKI-1 renal
  TGI: > 100 µM
PC-3 prostate
  TGI: > 100 µM
HT29 colon
  TGI: > 100 µM
COLO 205 colon
  TGI: > 100 µM
SK-MEL-5 melanoma
  TGI: 61.3 µM
SF-295 CNS
  TGI: > 100 µM
M14 melanoma
  TGI: > 100 µM
HOP-92 NSCLC
  TGI: > 100 µM
HS 578T breast
  TGI: > 100 µM
SNB-19 CNS
  TGI: > 100 µM
UACC-62 melanoma
  TGI: > 100 µM
NCI-H226 lung
  TGI: 83.5 µM
SN12C renal
  TGI: > 100 µM
786-0 renal
  TGI: 80.1 µM
A498 renal
  TGI: > 100 µM

## Cc1c2cnccc2nc2[nH]c3ccncc3c12
U251 CNS
  TGI: > 100 µM
TK-10 renal
  TGI: 24.3 µM
LOX IMVI melanoma
  TGI: 11.9 µM
SNB-75 CNS
  TGI: > 100 µM
CAKI-1 renal
  TGI: 24.9 µM
PC-3 prostate
  TGI: > 100 µM
HT29 colon
  TGI: > 100 µM
COLO 205 colon
  TGI: > 100 µM
SK-MEL-5 melanoma
  TGI: 20.6 µM
SF-295 CNS
  TGI: 52.5 µM
M14 melanoma
  TGI: 20.6 µM
HOP-92 NSCLC
  TGI: 25.3 µM
HS 578T breast
  TGI: > 100 µM
SNB-19 CNS
  TGI: > 100 µM
UACC-62 melanoma
  TGI: 41.5 µM
SN12C renal
  TGI: > 100 µM
786-0 renal
  TGI: 63.1 µM
A498 renal
  TGI: 47.5 µM

## Cc1ccc(C(=O)C#Cc2cn(C3CC(O)C(CO)O3)c(=O)[nH]c2=O)cc1 (stereo unspecified)
U251 CNS
  TGI: > 100 µM
TK-10 renal
  TGI: > 100 µM
LOX IMVI melanoma
  TGI: > 100 µM
SNB-75 CNS
  TGI: > 100 µM
CAKI-1 renal
  TGI: > 100 µM
PC-3 prostate
  TGI: > 100 µM
HT29 colon
  TGI: > 100 µM
COLO 205 colon
  TGI: > 100 µM
SK-MEL-5 melanoma
  TGI: > 100 µM
SF-295 CNS
  TGI: > 100 µM
M14 melanoma
  TGI: > 100 µM
HOP-92 NSCLC
  TGI: 65.1 µM
HS 578T breast
  TGI: > 100 µM
SNB-19 CNS
  TGI: > 100 µM
UACC-62 melanoma
  TGI: > 100 µM
NCI-H226 lung
  TGI: > 100 µM
SN12C renal
  TGI: > 100 µM
786-0 renal
  TGI: > 100 µM

## CCOC(=O)COc1ccc(/C=C/C(=O)c2ccc(OC)cc2)cc1
U251 CNS
  TGI: 34.6 µM
TK-10 renal
  TGI: > 100 µM
LOX IMVI melanoma
  TGI: 39.4 µM
SNB-75 CNS
  TGI: > 100 µM
PC-3 prostate
  TGI: 62.5 µM
HT29 colon
  TGI: 64.9 µM
COLO 205 colon
  TGI: > 100 µM
SF-295 CNS
  TGI: > 100 µM
M14 melanoma
  TGI: > 100 µM
HOP-92 NSCLC
  TGI: 48.2 µM
HS 578T breast
  TGI: > 100 µM
SNB-19 CNS
  TGI: > 100 µM
UACC-62 melanoma
  TGI: 58.6 µM
SN12C renal
  TGI: 39.6 µM
786-0 renal
  TGI: 54.3 µM
A498 renal
  TGI: > 100 µM

## CCc1cc2c(cc1CCCC(=O)O)CC1(Cc3ccc(C(=O)O)cc3C1)C2 (stereo unspecified)
U251 CNS
  TGI: > 100 µM
TK-10 renal
  TGI: > 100 µM
LOX IMVI melanoma
  TGI: > 100 µM
SNB-75 CNS
  TGI: > 100 µM
CAKI-1 renal
  TGI: > 100 µM
PC-3 prostate
  TGI: > 100 µM
HT29 colon
  TGI: > 100 µM
COLO 205 colon
  TGI: > 100 µM
SK-MEL-5 melanoma
  TGI: > 100 µM
SF-295 CNS
  TGI: > 100 µM
M14 melanoma
  TGI: > 100 µM
HOP-92 NSCLC
  TGI: > 100 µM
HS 578T breast
  TGI: > 100 µM
SNB-19 CNS
  TGI: > 100 µM
NCI-H226 lung
  TGI: > 100 µM
SN12C renal
  TGI: > 100 µM
786-0 renal
  TGI: > 100 µM
A498 renal
  TGI: > 100 µM

## O=C1CC(CC(OCc2ccccc2)C(COCc2ccccc2)OCc2ccccc2)CC(=O)N1 (stereo unspecified)
U251 CNS
  TGI: > 100 µM
LOX IMVI melanoma
  TGI: > 100 µM
SNB-75 CNS
  TGI: > 100 µM
CAKI-1 renal
  TGI: 76.3 µM
PC-3 prostate
  TGI: 63.9 µM
HT29 colon
  TGI: 65.9 µM
COLO 205 colon
  TGI: 39.6 µM
SK-MEL-5 melanoma
  TGI: 30.9 µM
SF-295 CNS
  TGI: > 100 µM
M14 melanoma
  TGI: > 100 µM
HOP-92 NSCLC
  TGI: 86.1 µM
HS 578T breast
  TGI: > 100 µM
NCI-H226 lung
  TGI: > 100 µM
SN12C renal
  TGI: > 100 µM
786-0 renal
  TGI: > 100 µM
A498 renal
  TGI: > 100 µM
